In patent publication US20240287089A1, “Preparation and Uses of 7-Azaindenoisoquinolines” (Purdue Research Foundation, priority 0001, published 2024):
Read-outs that look alike come from different tables or passages of the source.

Tests used:
[1] = tested on: MCF7 (Breast); conditions: reference 20, read-out: Cytotoxicity GI50; cited from earlier work
[2] = tested on: SN12C (Renal); conditions: reference 20, read-out: Cytotoxicity GI50; cited from earlier work
[3] = dogs, same time points; cited from earlier work
[4] = tested on: HOP-62 (Lung); conditions: Lung HOP-62; reference 20; read-out: Cytotoxicity GI50; cited from earlier work
[5] = Brain penetration and plasma/brain pharmacokinetics in CD1 mice; conditions: for Brain Conc / Brain/Plasma Conc Ratio / Plasma Conc: 20 mg/kg IV
Procedure: Brain Penetration Studies. […] The concentrations were determined by LC-MS/MS with direct measurement of the plasma samples. The brain tissue was homogenized with water using a 3:1 ratio of water (mL) to brain (g) before determination of the concentrations (ng/mL) in the brain homogenates, and the homogenate values then were multiplied by a factor of 4 to obtain the brain concentrations (ng/g).

[6] = tested on: MYC mRNA in MCF-7 breast cancer cells; test: qRT-PCR of MYC mRNA; assay type: cell-based; conditions: MCF-7, 1.0 μM, 6 h
Procedure: Quantitative Reverse Transcriptase PCR (qRT-PCR). MCF-7 cells were grown and treated in 12-well tissue culture plates until collection. Total RNA was extracted using TRIzol reagent (15596018, Life Technologies). Purified RNA was dissolved in DEPC water and quantified. 1 μg purified RNA per sample was converted to cDNA using qScript cDNA SuperMix (84034, Quantabio) according to manufacturer's instruction. Real-time PCR reagents were made for each sample by mixing 1 μL synthesized cDNA, 3 μL PCR-grade water, 5 μL SYBR Green reagent (A25742, Applied Biosystem), and 0.25 μL each primer for Myc and GAPDH. Reactions were set up in triplicate for each target of each sample. Real-time PCR was conducted in 96-well PCR plates with a QuantStudio 6 Flex Real-Time PCR System (Life Technologies). The cycling condition was 95° C. for 5 min, followed by 40 cycles at 95° C. for 15 s, 60° C. for 15 s, and 72° C. for 15 s. The relative Myc expression was calculated using the 2^−ΔΔCt method by normalizing against GAPDH as the endogenous control.

[7] = male, mouse, microsomes, 1 μM
[8] = Pharmacokinetics IV and PO in male CD1 mice
[9] = tested on: RS4;11 human leukemia cells; test: RS4;11 xenograft in female NOD SCID mice; assay type: in vivo
Procedure: (§1) Xenograft Studies. […] JQ1 was employed as a positive control.
The compounds were also evaluated in an RS4;11 human leukemia xenograft model (FIGS. 20 and 21). Treatment was started 12 days after tumor inoculation, with drugs being administered on days 1-5 and 11-15 after the start of treatment. Animal weights and tumor volumes were determined at 12, 15, 19, 22, and 25 days after tumor inoculation.

[10] = tested on: RD-ES human sarcoma tumor cells; test: RD-ES xenograft in female NOD SCID mice; assay type: in vivo; conditions: 20 mg/kg IV
Procedure: as §1
Similar studies were performed after inoculation of female NOD SCID mice with RD-ES human sarcoma tumor cells (FIGS. 16-19). The tumors grew much more rapidly and treatment was started on day 8 after tumor inoculation, with measurements of body weights and tumor sizes being made on days 8, 12, 15, 19, and 22 after tumor inoculation. […] The average RD-ES tumor sizes were much larger than observed with MOLT-4 (2327±285 vs. 546±59 mm^3).

[11] = Metabolic stability in liver microsomes; conditions: human liver microsomes
[12] = brain, IV 20 mg/kg, male CD1 mice
[13] = plasma, IV 20 mg/kg, male CD1 mice
[14] = male, CD1, mouse, plasma, iv, 1 mg/kg

COc1cc2c3c(n(CCCNCCO)c(=O)c2cc1OC)-c1cc2c(cc1C3=O)OCO2 [LMP744]
GI50 [1]: 790 nM
GI50 [2]: < 10 nM
mean tumor concentration relative to plasma concentration [3]: at least 100 times
GI50 [4]: 20 nM
Brain Conc ([5]; 0.25 h): 941 ± 158 nM
Brain/Plasma Conc Ratio ([5]; 0.25 h): 0.65
Plasma Conc ([5]; 0.25 h): 1434 ± 123 nM
Brain Conc ([5]; 0.5 h): 582 ± 380 nM
Brain/Plasma Conc Ratio ([5]; 0.5 h): 0.34
Plasma Conc ([5]; 0.5 h): 1712 ± 945 nM
Brain Conc ([5]; 1 h): 802 ± 122 nM
Brain/Plasma Conc Ratio ([5]; 1 h): 0.90
Plasma Conc ([5]; 1 h): 894 ± 194 nM
Brain Conc ([5]; 2 h): 743 ± 136 nM
Brain/Plasma Conc Ratio ([5]; 2 h): 1.39
Plasma Conc ([5]; 2 h): 535 ± 103 nM
Brain Conc ([5]; 4 h): 857 ± 162 nM
Brain/Plasma Conc Ratio ([5]; 4 h): 5.44
Plasma Conc ([5]; 4 h): 154 ± 14 nM
Brain Conc ([5]; 8 h): 759 ± 188 nM
Plasma Conc ([5]; 8 h): 86 ± 31 nM
Brain Conc ([5]; 24 h): 524 ± 166 nM
Brain/Plasma Conc Ratio ([5]; 24 h): 27.1
Plasma Conc ([5]; 24 h): 23 ± 5 nM
AUClast [5, 12]: 7606 ng·h/g
AUC—% Extrap—obs [5, 12]: 72%
Cmax [5, 12]: 413 ng/g
Tmax [5, 12]: 0.25 h
AUCInf [5, 13]: 2132 ng·h/mL
AUClast [5, 13]: 2022 ng·h/mL
AUC—% Extrap—obs [5, 13]: 5.16%
C0 [5, 13]: 1943 ng/mL
Cl_obs [5, 13]: 156 mL/min/kg
MRTInf—obs [5, 13]: 5.14 h
T1/2 [5, 13]: 7.48 h
Vss—obs [5, 13]: 48.2 L/kg

COc1cc2c3c(n(CCCNCCO)c(=O)c2cc1OC)-c1nc2c(cc1C3=O)OCO2 [G105, 6-(3-((2-Hydroxyethyl)amino)propyl)-2,3-dimethoxy-5H-[1,3]dioxolo[4″,5″:5′,6′]pyrido[3′,2′:4,5]cyclopenta[1,2-c]isoquinoline-5,12(6H)-dione]
MYC mRNA level [6]: significantly lowered MYC mRNA levels
Scaled-up CLint [7]: 14.10 mL/min/kg
T1/2 [7]: 7.1658 h
in vitro CLint [7]: 3.22 μL/min/mg protein
AUCInf ([8]; IV 1 mg/kg, male CD1 mice): 155 ng·h/mL
AUClast ([8]; IV 1 mg/kg, male CD1 mice): 151 ng·h/mL
AUClast/D ([8]; IV 1 mg/kg, male CD1 mice): 151 ng·h/mL
AUC—% Extrap—obs ([8]; IV 1 mg/kg, male CD1 mice): 2.61%
C0 ([8]; IV 1 mg/kg, male CD1 mice): 177 ng/mL
Cl_obs ([8]; IV 1 mg/kg, male CD1 mice): 107 mL/min/kg
MRTInf—obs ([8]; IV 1 mg/kg, male CD1 mice): 1.49 h
T1/2 ([8]; IV 1 mg/kg, male CD1 mice): 1.84 h
AUCInf ([8]; PO 10 mg/kg, male CD1 mice): 28.8 ng·h/mL
AUClast ([8]; PO 10 mg/kg, male CD1 mice): 18.0 ng·h/mL
AUClast/D ([8]; PO 10 mg/kg, male CD1 mice): 1.80 ng·h/mL
AUC—% Extrap—obs ([8]; PO 10 mg/kg, male CD1 mice): 37.3%
Cmax ([8]; PO 10 mg/kg, male CD1 mice): 3.50 ng/mL
F (fraction of the dose absorbed) ([8]; PO 10 mg/kg, male CD1 mice): 1.19%
MRTInf—obs ([8]; PO 10 mg/kg, male CD1 mice): 7.86 h
T1/2 ([8]; PO 10 mg/kg, male CD1 mice): 5.20 h
Tmax ([8]; PO 10 mg/kg, male CD1 mice): 0.500 h
Vd [8, 14]: 9.62 L/kg
half-life [8, 14]: 1.84 h
half-life ([8]; male, CD1, mouse, plasma, po, 10 mg/kg): 5.2 h
toxicity estimated from decrease in animal weight ([9]; 20 mg/kg IV): most toxic
reduction of tumor volume ([9]; IV days 1-5 and 11-15, G105 20 mg/kg, G104 15 and 30 mg/kg): most potent
potency on tumor size [10]: most potent
Scaled-up CLint [11]: 7.67 mL/min/kg
in vitro CLint [11]: 6.12 μL/min/mg protein
T1/2 ([11]; 1 μM): 3.7753 h
